The assay addresses CRAC channel (Homo sapiens (Human), UniProt Q96D31). As to the kind of experiment: GFP-NFAT translocation-based high-content screening (TG-stimulated HeLa cells stably expressing GFP-NFAT). In kind it is cell-based. The conditions noted are these: for Inhibitory activity on CRAC channel in primary screening (NFAT nucleus-to-cytosol ratio): 200 μM compound. From the text:
It is known that thapsigargin (TG) can induce the CRAC channel to open resulting in the calcium influx. The elevation of calcium in cytoplasm can activate the Ca^2+-calcineurin-NFAT pathway followed by NFAT translocation from the cytoplasm to the nucleus to regulate gene transcription. Therefore, the inventors built a GFP-NFAT translocation-based high-content screening method to evaluate the activity of compounds on CRAC channel. Briefly, a HeLa cell line stably expressing GFP-NFAT was established and used, and the images after chemical stimulation in the presence of TG were acquired using an IN Cell Analyzer 6000 confocal laser imaging system, and then the GFP fluorescent intensity ratio between cytoplasm and nucleus was analyzed to reflect the inhibitory activity of compound on CRAC channel.
Briefly, GFP-NFAT stable cells were cultured in Dulbecco's modified eagle's medium (DMEM) supplemented with 10% FBS in 5% carbon dioxide at 37° C. When it reached 90% confluency, a cell suspension with a concentration of […] was prepared, and an amount of 2000 cells per well (25 μL/well) was seeded in 384 well plate, putting it at the room temperature for 1 h to make sure the cells distribute evenly, then the cells were incubated overnight. First, primary screening of the selected compounds was conducted. A series of compound solutions with a concentration of 200 μM in MEDM medium were prepared in a 96 well plate and then added to a 384 well plate using a Beckman Coulter automatic drug adding system, in 4 duplicates, and incubated for 30 min at 37° C. SKF was selected as the positive control. Then, 1 μM TG and 1 mM Ca^2+ were added to 384-well plate using Beckman Coulter automatic drug adding system and incubated for 20 min. Subsequently, 384 well plate was gently washed with PBS twice, and the cells were fixed with 4% PFA (25 μl per well) for 10˜15 mins at room temperature, then washed with PBS gently, added 0.5% Triton X-100 (25 μL per well), and incubated for 5 mins aFt room temperature, stained with DAPI (1 μg/mL) for 5˜10 mins at room temperature, washed with PBS and added 30 μL PBS per well to image on confocal laser imaging system (objective lens: 10×, FITC and UV). Using Pipeline Plot software (NAFT translocation protocol), the intensity of green fluorescence was analyzed in nucleus and cytosol, calculate the ratio of nucleus:cytosol, normalize TG stimulate NFAT translocation as 1 and no TG adding as 0. Finally, the data was analyzed using GraphPad Prism 5 software.

[1] abbreviates: Table 1, hits from virtual screening, unit inferred, read-out: IC50 Value.
[2] abbreviates: Table 2, unit inferred, read-out: IC50 of the compounds (inhibitory activity on CRAC channel).

Like-named read-outs stand apart in the source and are kept apart here. Bounds are passed on as bounds.

The IC50 is the point on the concentration scale where inhibition reaches its midpoint.

CRAC channel, sequence (Q96D31 whole entry): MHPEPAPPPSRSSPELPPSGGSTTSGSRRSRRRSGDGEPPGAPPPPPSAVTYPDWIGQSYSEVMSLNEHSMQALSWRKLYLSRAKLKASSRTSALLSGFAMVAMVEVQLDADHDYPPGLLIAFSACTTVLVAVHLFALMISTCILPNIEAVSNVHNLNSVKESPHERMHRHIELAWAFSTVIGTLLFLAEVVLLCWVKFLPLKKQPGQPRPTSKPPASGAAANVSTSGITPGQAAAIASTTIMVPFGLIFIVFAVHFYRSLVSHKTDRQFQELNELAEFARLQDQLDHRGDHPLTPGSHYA

In the case of `CCN/C(=N\c1cccc(C(F)(F)F)c1)S[C@H]1CC(=O)N(c2ccc(C(=O)O)cc2)C1=O` [Compound 03], the “Inhibitory activity on CRAC channel in primary screening (NFAT nucleus-to-cytosol ratio)” value was “good activity”. The IC50 (GFP-NFAT translocation assay, read-out: IC50 on CRAC channel) was approximately 100 µM. Further, under setting [1], the IC50 came out at 144 µM.

As for `Cc1cc(C)c(S(=O)(=O)Nc2ccc(O)c(C(=O)O)c2)c(C)c1` [Compound 06], the IC50 under setting [1] was more than 200 µM.

As to `Cc1ccc(Oc2ccc3c(c2)C(=O)N(CC(=O)O)C3=O)cc1` [Compound 07], the IC50 under setting [1] is more than 200 µM.

For `O=C(CSCc1c(Cl)cccc1Cl)Nc1ccc(C(=O)O)cc1` [Compound 09], under setting [1], the IC50 is more than 200 µM.

Turning to `Cc1cc(=O)n2c3c(cc(S(=O)(=O)NCc4ccc(C(=O)O)cc4)cc13)CC2` [Compound 12], the concentration for half-maximal inhibition (IC50) under setting [1] is more than 200 µM.

Take `O=C(CCCc1nc(-c2ccccc2)no1)Nc1ccc(C(=O)O)cc1` [Compound 13]: the half-inhibitory concentration (IC50) under setting [1] is more than 200 µM.

In the case of `O=C(O)c1ccc(-c2ccc(CNC3CCCCC3)o2)cc1` [Compound 14], the IC50 under setting [1] was more than 200 µM.

Consider `Cc1cccc(C)c1OCC(=O)NCc1ccc(C(=O)O)cc1` [Compound 17], for which the IC50 under setting [1] is more than 200 µM.

Regarding `O=C(O)c1ccc(NC(=O)C2CC(=O)N(c3ccc(Cl)cc3)C2)cc1` (centres unmarked) [Compound 18], the IC50 under setting [1] was more than 200 µM.

As to `CCOc1cc(Cl)c(S(=O)(=O)N2CCC(C(=O)O)CC2)cc1Cl` [Compound 19], the IC50 under setting [1] is more than 200 µM.

As to `CN1C(=O)C(Cc2ccc(O)c(Cl)c2)S/C1=N\c1cccc(C(=O)O)c1` (centres unmarked) [Compound 21], the half-inhibitory concentration (IC50) (Table 1, compound marked as agonist, unit inferred, read-out: IC50 Value (agonist)) turned out to be 60.3 µM.

`CC(SC1N=C(c2ccccc2)C(c2ccccc2)=N1)C(=O)O` (centres unmarked) [Compound 22]: the IC50 under setting [1] was more than 200 µM.

Regarding `CCc1ccc(C=C(C(=O)O)C(=O)O)s1` [Compound 23], under setting [1], the IC50 is more than 200 µM.

With `O=C(O)c1ccc(N2C(=O)c3cccc4cc(Br)cc(c34)C2=O)cc1` [Compound 24], under setting [1], the IC50 was more than 200 µM.

Turning to `C=CC[C@H]1N(c2ccccc2Cl)C[C@H]2[C@H](C(=O)O)[C@@H]3C=C[C@@]21O3` [Compound 25], the IC50 under setting [1] was more than 200 µM.

As for `CC(=C\C(=O)O)/C(=C/c1ccc(C)o1)C(=O)O` [Compound 27], under setting [1], the IC50 is more than 200 µM.

For `Nc1c(S(=O)(=O)O)ccc2c1C(=O)c1ccccc1C2=O` [Compound 28], the concentration for half-maximal inhibition (IC50) under setting [1] was more than 200 µM.

Take `Cc1nn([C@H](CC(=O)O)C(=O)O)c(C)c1I` [Compound 29]: the IC50 under setting [1] is more than 200 µM.

In the case of `CCN/C(=N\c1ccc(Cl)c(Cl)c1)S[C@H]1CC(=O)N(c2ccc(C(=O)O)cc2)C1=O` [Compound 30], the concentration for half-maximal inhibition (IC50) under setting [1] is more than 200 µM.

As to `Cc1cc2nc(S(=O)(=O)O)n(C)c2cc1C` [Compound 31], the half-maximal inhibitory concentration (IC50) under setting [1] was more than 200 µM.

`Cc1c(C(=O)O)nnn1-c1ccc(Br)cc1` [Compound 32]: under setting [1], the IC50 was more than 200 µM.

As to `O=C(O)c1ccc(C(=O)Nc2ccc(Br)cc2)c(C(=O)O)c1` [Compound 33], the IC50 under setting [1] was more than 200 µM.

As to `COc1ccc(-c2occ(C(=O)O)c2C(=O)O)cc1` [Compound 34], the IC50 under setting [1] was more than 200 µM.

As for `O=C(O)c1ccc2c(c1)[C@@H](Cl)Cc1ccccc1S2` [Compound 35], the IC50 under setting [1] is more than 200 µM.

Regarding `O=C1CCC(=O)N1c1ccc(S(=O)(=O)O)cc1` [Compound 36], under setting [1], the half-inhibitory concentration (IC50) was more than 200 µM.

On to `O=C(O)CN1C(=O)[C@@H]2[C@@H](C1=O)[C@H]1C=C[C@@H]2C1` [Compound 37], for which, under setting [1], the 50% inhibitory concentration (IC50) is more than 200 µM.

As to `Cc1nn(-c2ccc([N+](=O)[O-])cc2)c(Cl)c1S(=O)(=O)O` [Compound 38], the half-inhibitory concentration (IC50) under setting [1] is more than 200 µM.

Turning to `O=C(O)[C@H]1CC(=O)N(c2ccc(I)cc2)C1` [Compound 39], the IC50 under setting [1] is more than 200 µM.

For `C#CCOc1ccc2ccccc2c1/C=C1\SC(Nc2cccc(C(=O)O)c2)=NC1=O` [Compound 40], the IC50 under setting [1] is more than 200 µM.

For the compound `Cc1ccc(N2C(=O)c3ccc(C(=O)O)cc3C2=O)cc1Cl` [Compound 42], the 50% inhibitory concentration (IC50) under setting [1] is more than 200 µM.

Regarding `Cc1cc(C)n(-c2ccc(S(=O)(=O)O)cc2)n1` [Compound 43], the IC50 under setting [1] is more than 200 µM.

For the compound `O=C(O)CCC(=O)Nc1ccc(OCCc2ccccc2)cc1` [Compound 44], the IC50 under setting [1] was more than 200 µM.

With `Cc1ccc(S(=O)(=O)Nc2ccc(O)c(C(=O)O)c2)c(C)c1` [Compound 46], the IC50 under setting [1] was more than 200 µM.

Consider `O=C(O)c1ccc(NC(=O)[C@H]2CC(=O)N(c3ccc(Cl)cc3)C2)cc1` [Compound 47], for which the IC50 under setting [1] is more than 200 µM.

`Nc1nc(C(=O)O)nn1C12CC3CC(CC(C3)C1)C2` [Compound 48]: under setting [1], the 50% inhibitory concentration (IC50) is more than 200 µM.

As to `CN(C)c1ccc(CNCc2ccc(C(=O)O)cc2)cc1` [Compound 49], the IC50 under setting [1] was more than 200 µM.

As for `Cc1ccc(Oc2ccc(N3C[C@H](C(=O)O)CC3=O)cc2)cc1C` [Compound 50], under setting [1], the IC50 is more than 200 µM.

Take `O=c1[nH]nnc2c1C1=C(CCCC1)C2` [Compound 51]: under setting [1], the half-inhibitory concentration (IC50) was more than 200 µM.

As to `O=C(O)c1ccc(N2C(=O)CC(S/C(=N\c3ccccc3)Nc3ccccc3)C2=O)cc1` (centres unmarked) [Compound 52], under setting [2], the IC50 is more than 200 µM.

With `CN/C(=N/c1ccc(F)cc1)SC1CC(=O)N(c2ccc(C(=O)O)cc2)C1=O` (centres unmarked) [Compound 54], the IC50 under setting [2] is more than 200 µM.

For `CCN/C(=N/c1ccc(C(F)(F)F)cc1)SC1CC(=O)N(c2ccc(C(=O)O)cc2)C1=O` (centres unmarked) [Compound 55], under setting [2], the IC50 was more than 200 µM.

Take `CN/C(=N/c1cc(Cl)ccc1Cl)SC1CC(=O)N(c2ccc(C(=O)O)cc2)C1=O` (centres unmarked) [Compound 56]: the half-maximal inhibitory concentration (IC50) under setting [2] was more than 200 µM.

Turning to `CCOC(=O)c1ccc(N2C(=O)CC(SCc3nnnn3-c3ccccc3)C2=O)cc1` (centres unmarked) [Compound 57], the 50% inhibitory concentration (IC50) under setting [2] was more than 200 µM.

In the case of `COC(=O)c1ccc(N2C(=O)CC(S/C(=N\c3ccccc3)NCc3ccc4c(c3)OCO4)C2=O)cc1` (centres unmarked) [Compound 58], the 50% inhibitory concentration (IC50) under setting [2] was more than 200 µM.

Regarding `CN/C(=N/c1ccc(I)cc1)SC1CC(=O)N(c2ccc(C(=O)O)cc2)C1=O` (centres unmarked) [Compound 59], the half-maximal inhibitory concentration (IC50) under setting [2] is more than 200 µM.

Regarding `CN/C(=N/c1ccc(C)c(Cl)c1)SC1CC(=O)N(c2ccc(C(=O)O)cc2)C1=O` (centres unmarked) [Compound 60], under setting [2], the IC50 is more than 200 µM.

In the case of `CCN/C(=N/c1ccccc1)SC1CC(=O)N(c2ccc(C(=O)O)cc2)C1=O` (centres unmarked) [Compound 61], the concentration for half-maximal inhibition (IC50) under setting [2] is more than 200 µM.

As for `CCN/C(=N/c1ccc(C)c(Cl)c1)SC1CC(=O)N(c2ccc(C(=O)OC)cc2)C1=O` (centres unmarked) [Compound 62], the “Inhibitory activity on CRAC channel in primary screening (NFAT nucleus-to-cytosol ratio)” value is listed as “good inhibition”. Under setting [2], the 50% inhibitory concentration (IC50) is 11.3 µM.

With `CN/C(=N/c1ccccc1OC)SC1CC(=O)N(c2ccc(C(=O)OC)cc2)C1=O` (centres unmarked) [Compound 63], under setting [2], the half-inhibitory concentration (IC50) stood at 74.4 µM.

As to `CN/C(=N/c1ccccc1)SC1CC(=O)N(c2ccc(C(=O)OC)cc2)C1=O` (centres unmarked) [Compound 64], under setting [2], the half-maximal inhibitory concentration (IC50) worked out at 24.9 µM.

In the case of `COC(=O)c1ccc(N2C(=O)CC(S/C(=N\c3cccc(C(F)(F)F)c3)NCCc3ccc(OC)c(OC)c3)C2=O)cc1` (centres unmarked) [Compound 67], the IC50 under setting [2] was more than 200 µM.

Regarding `COC(=O)c1ccc(N2C(=O)CC(S/C(=N\c3ccc(Cl)cc3)NCc3ccccc3)C2=O)cc1` (centres unmarked) [Compound 68], under setting [2], the IC50 was more than 200 µM.

Turning to `CN/C(=N/c1cc(Cl)cc(Cl)c1)SC1CC(=O)N(c2ccc(C(=O)O)cc2)C1=O` (centres unmarked) [Compound 69], the IC50 under setting [2] worked out at 108 µM.

Consider `CN/C(=N/c1cccc(F)c1)SC1CC(=O)N(c2ccc(C(=O)O)cc2)C1=O` (centres unmarked) [Compound 70], for which, under setting [2], the IC50 is more than 200 µM.

For the compound `CN/C(=N/c1cccc(OC)c1)SC1CC(=O)N(c2ccc(C(=O)O)cc2)C1=O` (centres unmarked) [Compound 71], under setting [2], the IC50 was more than 200 µM.

`CCN/C(=N/c1cccc(OC)c1)SC1CC(=O)N(c2ccc(C(=O)O)cc2)C1=O` (centres unmarked) [Compound 72]: the IC50 under setting [2] was more than 200 µM.

(Values after patent US11905244B2, “Chemical modulators of store-operated calcium channels and their therapeutic applications” (The Texas A&M University System, priority 2017, dated 2024).)
